Data taken from US11834434B2, “Substituted 2-heteroaryloxypyridines and salts thereof and their use as herbicidal agents” (Bayer Aktiengesellschaft, priority 2018, dated 2023).

Assays:
Format in all cases: in vivo
[1] = system: Poa annua (POAAN); assay: Pre-emergence herbicidal action against Poa annua; conditions: 1280 g/ha; scored visually after about 3 weeks vs untreated controls; 100% = plants have died, 0% = like control plants
Text: (§1) Seeds of mono- and dicotyledonous weed plants were placed in plastic pots in sandy loam soil (doubly sown with in each case one species of mono- or dicotyledonous weed plants per pot) and covered with soil. The compounds of the invention, formulated in the form of wettable powders (WP) or as emulsion concentrates (EC), were then applied onto the surface of the covering soil as aqueous suspension or emulsion with addition of 0.5% additive at a water application rate of 600 liters per hectare (converted). After the treatment, the pots were placed in a greenhouse and kept under good growth conditions for the test plants. After about 3 weeks, the effect of the preparations was scored visually in comparison with untreated controls as percentages. For example, 100% activity=the plants have died, 0% activity=like control plants. Tables C1 to C8 below show the effects of selected compounds of the general formula (I) according to Table 1 on various harmful plants and an application rate corresponding to 1280 g/ha, which were obtained by the experimental procedure mentioned above.

[2] = system: Echinochloa crus-galli (ECHCG); assay: Pre-emergence herbicidal action against Echinochloa crus-galli; conditions: 1280 g/ha; scored visually after about 3 weeks vs untreated controls; 100% = plants have died, 0% = like control plants
Text: as §1

[3] = system: Abutilon theophrasti (ABUTH); assay: Post-emergence herbicidal action against Abutilon theophrasti; conditions: 1280 g/ha; rated visually after about 3 weeks vs untreated controls; 100% = plants have died, 0% = like control plants
Method: (§2) Seeds of mono- and dicotyledonous weed plants were placed in plastic pots in sandy loam soil (doubly sown with in each case one species of mono- or dicotyledonous weed plants per pot), covered with soil and cultivated in a greenhouse under controlled growth conditions. 2 to 3 weeks after sowing, the test plants were treated at the one-leaf stage. The compounds of the invention, formulated in the form of wettable powders (WP) or as emulsion concentrates (EC), were applied onto the green parts of the plants as aqueous suspension or emulsion with addition of 0.5% additive at a water application rate of 600 liters per hectare (converted). After the test plants had been kept in the greenhouse under optimum growth conditions for about 3 weeks, the activity of the preparations was rated visually in comparison to untreated controls. For example, 100% activity=the plants have died, 0% activity=like control plants. Tables B1 to B8 below show the effects of selected compounds of the general formula (I) according to Table 1 on various harmful plants and an application rate corresponding to 1280 g/ha, which were obtained by the experimental procedure mentioned above.

[4] = system: Lolium rigidum (LOLRI); assay: Pre-emergence herbicidal action against Lolium rigidum; conditions: 1280 g/ha; scored visually after about 3 weeks vs untreated controls; 100% = plants have died, 0% = like control plants
Text: as §1

[5] = system: Amaranthus retroflexus (AMARE); assay: Pre-emergence herbicidal action against Amaranthus retroflexus; conditions: 1280 g/ha; scored visually after about 3 weeks vs untreated controls; 100% = plants have died, 0% = like control plants
Text: as §1

[6] = system: Matricaria inodora (MATIN); assay: Pre-emergence herbicidal action against Matricaria inodora; conditions: 1280 g/ha; scored visually after about 3 weeks vs untreated controls; 100% = plants have died, 0% = like control plants
Text: as §1

[7] = system: Setaria viridis (SETVI); assay: Pre-emergence herbicidal action against Setaria viridis; conditions: 1280 g/ha; scored visually after about 3 weeks vs untreated controls; 100% = plants have died, 0% = like control plants
Text: as §1

[8] = system: Stellaria media (STEME); assay: Post-emergence herbicidal action against Stellaria media; conditions: 1280 g/ha; rated visually after about 3 weeks vs untreated controls; 100% = plants have died, 0% = like control plants
Method: as §2

[9] = system: Amaranthus retroflexus (AMARE); assay: Post-emergence herbicidal action against Amaranthus retroflexus; conditions: 1280 g/ha; rated visually after about 3 weeks vs untreated controls; 100% = plants have died, 0% = like control plants
Method: as §2

[10] = system: Poa annua (POAAN); assay: Post-emergence herbicidal action against Poa annua; conditions: 1280 g/ha; rated visually after about 3 weeks vs untreated controls; 100% = plants have died, 0% = like control plants
Method: as §2

[11] = system: Abutilon theophrasti (ABUTH); assay: Pre-emergence herbicidal action against Abutilon theophrasti; conditions: 1280 g/ha; scored visually after about 3 weeks vs untreated controls; 100% = plants have died, 0% = like control plants
Text: as §1

[12] = system: Stellaria media (STEME); assay: Pre-emergence herbicidal action against Stellaria media; conditions: 1280 g/ha; scored visually after about 3 weeks vs untreated controls; 100% = plants have died, 0% = like control plants
Text: as §1

Row | SMILES | Pre-emergence action against Poa annua (POAAN) [1] [%] | Pre-emergence action against Echinochloa crus-galli (ECHCG) [2] [%] | Post-emergence action against Abutilon theophrasti (ABUTH) [3] [%] | Pre-emergence action against Lolium rigidum (LOLRI) [4] [%] | Pre-emergence action against Amaranthus retroflexus (AMARE) [5] [%] | Pre-emergence action against Matricaria inodora (MATIN) [6] [%] | Pre-emergence action against Setaria viridis (SETVI) [7] [%] | Post-emergence action against Stellaria media (STEME) [8] [%] | Post-emergence action against Amaranthus retroflexus (AMARE) [9] [%] | Post-emergence action against Poa annua (POAAN) [10] [%] | Pre-emergence action against Abutilon theophrasti (ABUTH) [11] [%] | Pre-emergence action against Stellaria media (STEME) [12] [%]
1 | Cc1cc(C)c(Cc2ccc(Cl)cc2)c(Oc2ncc(F)cn2)n1 [Example I-482] | 100 | 100 | 90 | 100 | 100 | 100 | 100 | 100 | 100 | 100 | 100 | 100
2 | Cc1ccc(Cc2ccc(F)cc2F)c(Oc2ncc(F)cn2)n1 [Example I-433] | 100 | 100 | 90 | 90 | 100 | 100 | 100 | 100 | 90 | 100 | 100 | 100
3 | Cc1cc(C)c(Cc2ccc(Cl)c(F)c2)c(Oc2ncc(F)cn2)n1 [Example I-485] | 100 | 90 | 90 | 90 | 100 | 100 | 100 | 100 | 100 | 90 | 100 | 100
4 | Cc1ccc(Oc2ccccc2)c(Oc2ncc(F)cn2)n1 [Example I-511] | 100 | 100 | 90 | 90 | 100 | 100 | 100 | 100 | 100 | 100 | 100 | 100
5 | Cc1ccc(Cc2ccccc2)c(Oc2ncc(Cl)cn2)n1 [Example I-397] | 100 | 100 | 90 | 100 | 90 | 100 | 100 | 100 | – | 100 | 100 | 100
6 | Cc1ccc(Cc2c(C)cc(C)nc2Oc2ncc(F)cn2)cc1 [Example I-486] | 100 | 100 | 90 | 90 | 100 | – | 100 | 100 | 90 | 100 | 100 | 100
